Experimental data published in patent US5015661A, “Chromanes and their pharmaceutical compositions and methods” (Hoffmann-La Roche Inc., priority 1989, dated 1991).

What follows are molecules tested against superoxide-dependent, iron-promoted lipid peroxidation of native rat heart cardiac lipid liposomes (assay: Lipid peroxidation inhibition (in vitro testing of antiperoxidative agents, ANTI-OX), hypoxanthine-xanthine oxidase-Fe3+.ADP, rat cardiac liposomes, MDA equivalents). Details: 60 min, 37° C., screened at 1.0 μM, IC50 determined if inhibition ≥ 50%, read-out: ANTI-OX IC-50.
Assay type: biochemical
Procedure: The test system employs hypoxanthine-xanthine oxidase (XO)-Fe^3+. ADP as the free radical generator and purified, native rat-heart membrane phosphoglyceride in Hepes-KCl buffer, pH 7.4, as the substrate. Inhibition of superoxide-dependent, iron-promoted lipid peroxidation in the linear reaction phase (after 1 hour of reaction) is measured as the net formation of thiobarbituric acid (TBA)-reactive material. In this system, the TBA-reactive material, isolated by HPLC, is exclusively (>95%) malondialdehyde (MDA), a fragmentation end-product arising from fatty acyl hydroperoxides and cyclic endoperoxides. […]
a) Isolation and purification of Rat Cardiac Lipid
Conscious male Sprague-Dawley rats (~275g) maintained on a normal rodent diet were decapitated. The hearts were rapidly removed and perfused via the aorta with ice-cold 10 mM Hepes buffer, pH 7.4. The aorta and atria were removed, and the ventricular tissue was blotted and weighed (wet weight). The hearts were minced on ice with scissors and finally homogenized (100 mg tissue/ml ice-cold buffer) for 15 seconds (3×5 seconds) with a Tekmar Tissumizer at "maximal" setting. The homogenate was filtered through 4-ply cheesecloth, and homogenate lipids were extracted and purified by a modified Bligh-Dyer procedure (M.D. Marshall and M. Kates, Biochem. Biophys. Acta 260, 558 (1972). The cardiac lipids were stored in CHCl3 under nitrogen at -20° C. […]
b) Preparation of Cardiac Liposomes
Liposomes were prepared from extracted and purified, native rat heart cardiac lipid and were used as substrate for free-radical attack. Cardiac lipid (in CHCl3) was placed in a glass flask and evaporated to dryness under nitrogen at room temperature; the flask was gently rotated during evaporation to yield a thin, dry lipid film. The lipid was taken up in 10 mM Hepes-0.145M KCl, pH 7.4, and was resuspended by indirect an aerobic sonification for 15 minutes at room temperature. The liposome suspension was used immediately. […]
c) preparation of Fe^3+ -ADP Chelate
A chelate was formed in Hepes-KCl buffer between Fe^3+ (1.0mM FeCl3, final concentration) and ADP (10mM, final concentration) at pH 7.4 with stirring at room temperature. Chelation was allowed to proceed for 90 minutes prior to use. The chelate was prepared fresh for each days experiments to ensure iron solubility, effective chelation, and valence state. […]
d) Thiobarbituric Acid Reaction or Determination of Malondialdehvde Equivalents Malondialdehyde (MDA) equivalents were measured as thiobarbituric acid (TBA)-reactive material by the following modification of published methods. The reaction mixture. prepared fresh daily, contained water: BHT ([…] BHT in absolute ethanol): TBA (1.5% TBA in 0.2M Tris, pH 7.0) in the volume ratio 1:1:5. To each 1.0 ml of peroxidation reaction assayed (see below), 0.35 ml reaction mixture was added. After thorough mixing, the tubes were incubated in an 80° C. shaking water bath for 30 minutes. After this time, the tubes were plunged into an ice water bath, and the reaction was immediately stopped with 0.5 ml ice-cold 91% TCA followed by 2.0 ml CHCl3 After centrifugation for 30 minutes at 2000 rpm in a Sorval HL-8 rotor (4° C.), the absorbance of the washed, pink upper phase was read at 532 nm. A standard curve (0.8-40.0 nmol MDA) was run with every assay. For each curve, MDA was freshly prepared by acidification of 1,1,3,3 -tetraethoxypropane with 75% TCA-2.3N HCl (0.15 ml acid mixture with 1.0 ml suitably diluted tetraethoxypropane). Computer-assisted regression analysis of the standard curve was used to quantify the molar amounts of MDA equivalents in the experimental samples. […]
e) Lipid peroxidation Reaction
Cardiac liposomes were subjected to superoxidedependent. iron-promoted peroxidation in glass vessels to avoid the well-known antioxidant effects of many common polymerizing agents used to fabricate plastic labware. […]

IC50 [nM]	Compound
950	Cc1c(C)c2c(c(C)c1O)CCC(C)(c1cc3ncccc3o1)O2 (racemic) [Example 52, rac-3,4-Dihydro-2-(furo[3,2-b]pyridine-2-yl)-2,5,7,8-tetramethyl-2H-1-benzopyran-6-ol]
> 1000	Cc1c(C)c2c(c(C)c1O)CCC(C)(CCc1cccs1)O2 (racemic) [Example 57, rac-3,4-Dihydro-2,5,7,8-tetramethyl-2-[2-(2-thienyl)ethyl]-2H-1-benzo-pyran-6-ol]
> 1000	CCCCc1ccc(CCC2(C)CCc3c(C)c(O)c(C)c(C)c3O2)s1 (racemic) [Example 66, rac-2-[2-(5-Butyl-2-thienyl)ethyl]-3,4-dihydro-2,5,7,8-tetramethyl-2H-1-benzopyran-6-ol]
> 1000	COc1cc(CO)cc(C#CC2(C)CCc3c(C)c(O)c(C)c(C)c3O2)c1O (racemic) [Example 29, rac-3-[(3,4-Dihydro-6-hydroxy-2,5,7,8-tetramethyl-2H-1-benzopyran-2-yl)ethynyl]-4-hydroxy-5-methoxybenzenemethanol]
> 1000	Cc1c(C)c2c(c(C)c1O)CCC(C)(C#Cc1ccccc1N)O2 (racemic) [Example 40, rac-2-[(2-Aminophenyl)ethynyl]-3,4-dihydro-2,5,7,8-tetramethyl-2H-1-benzopyran-6-ol]
> 1000	Cc1c(C)c2c(c(C)c1O)CCC(C)(C#Cc1ccccn1)O2 (racemic) [Example 15, rac-3,4-Dihydro-2,5,7,8-tetramethyl1-2-[(2-pyridinyl)ethynyl]-2H-1-benzopyran-6-ol]
560	Cc1c(C)c2c(c(C)c1O)CCC(C)(C#Cc1csc3ccccc13)O2 (racemic) [Example 16, rac-[2-(Benzo[b]thiophen-3-yl)ethynyl]-3.4-dihydro-2,5,7,8-tetramethyl-2H-1-benzopyran-2H-1-benzopyran-6-ol]
> 1000	Cc1c(C)c2c(c(C)c1O)CCC(C)(C#Cc1cccc3ccccc13)O2 (racemic) [Example 39, rac-3,4-Dihydro-2,5,7,8-tetramethyl-2-(1-naphthyl)ethynyl-2H-1-benzopyran-6-ol]
> 1000	Cc1c(C)c2c(c(C)c1O)CCC(C)(CCc1ccc(-c3cccnc3)cc1)O2 (racemic) [Example 64, rac-3,4-Dihydro-2,5,7,8-tetramethyl-2-{2-[4-(3-pyridinyl)-phenyl]ethyl}-2H-1-benzopyran-6-ol]
> 1000	COc1ccc(C#CC2(C)CCc3c(C)c(O)c(C)c(C)c3O2)cc1OC(C)=O (racemic) [Example 20, rac-2-[(3-Acetyloxy-4-methoxyphenyl)ethynyl]-3.4-dihydro-2,5,7,8-tetramethyl-2H-1-benzopyran-6-ol]
800	Cc1c(C)c2c(c(C)c1O)CCC(C)(C#Cc1cccc(C(F)(F)F)c1)O2 (racemic) [Example 35, rac-2-{[3-(Trifluoromethyl)phenyl]ethynyl-3,4-dihydro-2,5,7,8-tetramethyl-2H-1-benzopyran-6-ol]
900	COC(=O)c1cc(C#CC2(C)CCc3c(C)c(O)c(C)c(C)c3O2)ccc1O (racemic) [Example 23, rac-5-(3,4-Dihydro-6-hydroxy-2,5,7,8-tetramethyl-2H-1-benzopyran-2-yl)ethynyl]-2-hydroxybenzoic acid methyl ester]
480	CC(=O)Oc1cc(C#CC2(C)CCc3c(C)c(O)c(C)c(C)c3O2)ccc1OCc1ccccc1 (racemic) [Example 41, rac-2-{[3-Acetyloxy-4-(phenylmethoxy)phenyl]ethynyl}-3,4-dihydro-2,5,7,8-tetramethyl-2H-1-benzopyran-6-ol]
550	CCCCc1ccc(C#CC2(C)CCc3c(C)c(O)c(C)c(C)c3O2)s1 (racemic) [Example 31, rac-2-[(5-Butyl-2-thienyl)ethynyl]-3,4-dihydro-2,5,7,8-tetramethyl-2H-1-benzopyran-6-ol]
850	COc1cc(CO)cc2cc(C3(C)CCc4c(C)c(O)c(C)c(C)c4O3)oc12 (racemic) [Example 55, rac-2-(3,4-Dihydro-6-hydroxy-2,5,7,8-tetramethyl-2H-1-benzopyran-2-yl)-7-methoxybenzofuran-5-methanol]
